In US11759462B2, “Spirocyclic compounds as tryptophan hydroxylase inhibitors” (priority 2013, dated 2023) one finds IC50 data, which are given here for 16 molecules.

Like-named read-outs stand apart in the source and are kept apart here.

For the assay, the target named is T1, Recombinant human TPH1 (MBP tagged) (Homo sapiens, UniProt P17752).
T1 construct: cloning full length human TPH1 cDNA in to a bacterial pMAL-c5E expression vector; made in house; host or cells: E. coli BL21 (DE3)
T1 sequence (P17752 1-444): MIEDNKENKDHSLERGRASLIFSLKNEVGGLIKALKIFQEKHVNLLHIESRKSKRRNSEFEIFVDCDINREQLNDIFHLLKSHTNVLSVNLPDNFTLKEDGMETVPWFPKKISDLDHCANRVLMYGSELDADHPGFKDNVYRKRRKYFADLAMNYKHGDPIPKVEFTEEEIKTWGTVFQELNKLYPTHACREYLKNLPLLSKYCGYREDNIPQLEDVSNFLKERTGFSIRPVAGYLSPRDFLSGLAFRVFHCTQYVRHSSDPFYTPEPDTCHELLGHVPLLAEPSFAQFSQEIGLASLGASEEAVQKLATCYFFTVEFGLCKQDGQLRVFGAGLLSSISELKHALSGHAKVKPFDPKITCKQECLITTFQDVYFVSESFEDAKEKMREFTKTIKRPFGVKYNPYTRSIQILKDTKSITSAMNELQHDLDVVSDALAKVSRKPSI
As to the kind of experiment: TPH1 in vitro inhibition assay (kinetic fluorescence). Format: biochemical. The source says:
Recombinant human TPH1 (rTPH1 GenBank™ accession no. NP_004179) was expressed by cloning full length human TPH1 cDNA in to a bacterial pMAL-c5E expression vector to produce maltose-binding protein (MBP) TPH1 fusion proteins. E. coli BL21 (DE3) containing pMAL-c5E-TPH1 was used for protein generation and the recombinant protein was purified utilizing standard column chromatography techniques. The MBP tagged TPH1 (MBP-TPH1) was used directly to screen compounds as described below. Recombinant human TPH2 (rTPH2 GenBank™ accession no. 173353), PheOH (rPheOH GenBank™ accession no. K03020) and TH (rTH GenBank™ accession no. L20679) with an MBP tag were produced similarly.
TPH1 activities were measured in an assay containing 200 mM ammonium sulfate, 7 mM DTT, 50 μg/mL catalase, 25 μM ammonium iron sulfate, 50 mM MES, pH 7.1. Test compounds were diluted in 100% DMSO and added to the assay plate in 1 μL aliquots at 100× final concentration. Fifty microliters of assay buffer containing 30 nM TPH1 enzyme (MBP tagged) were added to the plate wells containing the test compound by the use of an Eppendorf repeater pipette. The reaction was initiated by the addition of 50 μL of assay buffer containing 60 μM tryptophan and 72 μM 6-6-methyltetra-hydropterin (2× final concentration) by the use of a Multidrop (LabSystems). Final reaction conditions were 15 nM TPH1 enzyme, 30 μM tryptophan, 36 μM 6-methyltetra-hydropterin, 200 mM ammonium sulfate, 7 mM DTT, […], 25 μM ferrous ammonium sulfate, 50 mM MES, pH 7.1, with atmospheric oxygen at room temperature. The plate was immediately placed onto an M5 plate reader (Molecular Devices) for kinetic fluorescence measurement using an excitation setting of 300 nm and an emission setting of 335 nm. Fluorescence reads are recorded in kinetic mode for 300 seconds (5 minutes).
Kinetic assay data for compounds at specific concentrations was translated into slopes using the Softmax Pro software on a Spectramax reader, and compound inhibition slopes were compared with wells containing enzyme, substrate and cofactor in the absence of inhibitor (100%), and wells containing substrate and cofactor in the absence of enzyme (0%). DMSO concentration in the assay was 1%. […] IC50's were determined using Graphpad Prism.

Where [1] appears, read: read-out: TPH1 Range (TPH1 inhibition IC50).

As for `Cc1ccn(-c2cc(-c3ccc([S+](C)[O-])cc3)ccc2[C@@H](Oc2cc(N3CCC4(CC3)CN[C@H](C(=O)O)C4)nc(N)n2)C(F)(F)F)n1` (stereo partly drawn) [Example 1a, (3S)-8-(2-amino-6-((1R)-2,2,2-trifluoro-1-(3-(3-methyl-1H-pyrazol-1-yl)-4′-(methylsulfinyl)-[1,1′-biphenyl]-4-yl)ethoxy)pyrimidin-4-yl)-2,8-diazaspiro[4.5]decane-3-carboxylic acid], the IC50 (usually the concentration at which inhibition is half-maximal) under setting [1] was less than 50 nM. Still for that read-out and setting: in the case of `Cc1ccn(-c2cc(-c3ccc(CN)cc3)ccc2[C@@H](Oc2cc(N3CCC4(CC3)CN[C@H](C(=O)O)C4)nc(N)n2)C(F)(F)F)n1` [Example 1ab, (S)-8-(2-amino-6-((R)-1-(4′-(aminomethyl)-3-(3-methyl-1H-pyrazol-1-yl)-[1,1′-biphenyl]-4-yl)-2,2,2-trifluoroethoxy)pyrimidin-4-yl)-2,8-diazaspiro[4.5]decane-3-carboxylic acid] it was less than 50 nM; in that of `Cc1ccn(-c2cc(-c3cccc(F)c3)ccc2[C@@H](Oc2cc(N3CCC4(CC3)CN[C@H](C(=O)O)C4)nc(N)n2)C(F)(F)F)n1` [Example 1ac, (S)-8-(2-amino-6-((R)-2,2,2-trifluoro-1-(3′-fluoro-3-(3-methyl-1H-pyrazol-1-yl)-[1,1′-biphenyl]-4-yl)ethoxy)pyrimidin-4-yl)-2,8-diazaspiro[4.5]decane-3-carboxylic acid], less than 50 nM; in that of `Cc1ccn(-c2cc(-c3ccc4ncccc4c3)ccc2[C@@H](Oc2cc(N3CCC4(CC3)CN[C@H](C(=O)O)C4)nc(N)n2)C(F)(F)F)n1` [Example 1ad, (S)-8-(2-amino-6-((R)-2,2,2-trifluoro-1-(2-(3-methyl-1H-pyrazol-1-yl)-4-(quinolin-6-yl)phenyl)ethoxy)pyrimidin-4-yl)-2,8-diazaspiro[4.5]decane-3-carboxylic acid], less than 50 nM. Same read-out and setting: then `Cc1ccc(-c2ccc([C@@H](Oc3cc(N4CCC5(CC4)CN[C@H](C(=O)O)C5)nc(N)n3)C(F)(F)F)c(-n3ccc(C)n3)c2)cc1` [Example 1ae, (S)-8-(2-amino-6-((R)-2,2,2-trifluoro-1-(4′-methyl-3-(3-methyl-1H-pyrazol-1-yl)-[1,1′-biphenyl]-4-yl)ethoxy)pyrimidin-4-yl)-2,8-diazaspiro[4.5]decane-3-carboxylic acid], with less than 50 nM.

For the molecule `Cc1ccn(-c2cc(-c3ccc(Cl)c(Cl)c3)ccc2[C@@H](Oc2cc(N3CCC4(CC3)CN[C@H](C(=O)O)C4)nc(N)n2)C(F)(F)F)n1` [Example 1af, (S)-8-(2-amino-6-((R)-1-(3′,4′-dichloro-3-(3-methyl-1H-pyrazol-1-yl)-[1,1′-biphenyl]-4-yl)-2,2,2-trifluoroethoxy)pyrimidin-4-yl)-2,8-diazaspiro[4.5]decane-3-carboxylic acid], the IC50 (TPH1 Range (TPH1 inhibition IC50)) is less than 50 nM.

`Cc1ccn(-c2cc(-c3ccc(F)c(F)c3)ccc2[C@@H](Oc2cc(N3CCC4(CC3)CN[C@H](C(=O)O)C4)nc(N)n2)C(F)(F)F)n1` [Example 1ag, (S)-8-(2-amino-6-((R)-1-(3′,4′-difluoro-3-(3-methyl-1H-pyrazol-1-yl)-[1,1′-biphenyl]-4-yl)-2,2,2-trifluoroethoxy)pyrimidin-4-yl)-2,8-diazaspiro[4.5]decane-3-carboxylic acid]: the IC50 under setting [1] was less than 50 nM. As to `Cc1ccn(-c2cc(-c3ccc(Cl)cc3)ccc2[C@@H](Oc2cc(N3CCC4(CC3)CN[C@H](C(=O)O)C4)nc(N)n2)C(F)(F)F)n1` [Example 1ah, (S)-8-(2-amino-6-((R)-1-(4′-chloro-3-(3-methyl-1H-pyrazol-1-yl)-[1,1′-biphenyl]-4-yl)-2,2,2-trifluoroethoxy)pyrimidin-4-yl)-2,8-diazaspiro[4.5]decane-3-carboxylic acid], the half-maximal inhibitory concentration (IC50) under setting [1] was less than 50 nM.

Turning to `Cc1ccn(-c2cc(-c3cncnc3)ccc2[C@@H](Oc2cc(N3CCC4(CC3)CN[C@H](C(=O)O)C4)nc(N)n2)C(F)(F)F)n1` [Example 1ai, (S)-8-(2-amino-6-((R)-2,2,2-trifluoro-1-(2-(3-methyl-1H-pyrazol-1-yl)-4-(pyrimidin-5-yl)phenyl)ethoxy)pyrimidin-4-yl)-2,8-diazaspiro[4.5]decane-3-carboxylic acid], the IC50 under setting [1] is less than 50 nM. Still for that read-out and setting: then `Cc1ccn(-c2cc(-c3cc(Cl)cc(C(F)(F)F)c3)ccc2[C@@H](Oc2cc(N3CCC4(CC3)CN[C@H](C(=O)O)C4)nc(N)n2)C(F)(F)F)n1` [Example 1ak, (S)-8-(2-amino-6-((R)-1-(3′-chloro-3-(3-methyl-1H-pyrazol-1-yl)-5′-(trifluoromethyl)-[1,1′-biphenyl]-4-yl)-2,2,2-trifluoroethoxy)pyrimidin-4-yl)-2,8-diazaspiro[4.5]decane-3-carboxylic acid], with 50 to 300 nM. Same read-out and setting: in the case of `CCOc1ccc(-c2ccc([C@@H](Oc3cc(N4CCC5(CC4)CN[C@H](C(=O)O)C5)nc(N)n3)C(F)(F)F)c(-n3ccc(C)n3)c2)cc1Cl` [Example 1al, (S)-8-(2-amino-6-((R)-1-(3′-chloro-4′-ethoxy-3-(3-methyl-1H-pyrazol-1-yl)-[1,1′-biphenyl]-4-yl)-2,2,2-trifluoroethoxy)pyrimidin-4-yl)-2,8-diazaspiro[4.5]decane-3-carboxylic acid] it was less than 50 nM; in that of `Cc1ccn(-c2cc(-c3cccc(C(F)(F)F)c3)ccc2[C@@H](Oc2cc(N3CCC4(CC3)CN[C@H](C(=O)O)C4)nc(N)n2)C(F)(F)F)n1` [Example 1am, (S)-8-(2-amino-6-((R)-2,2,2-trifluoro-1-(3-(3-methyl-1H-pyrazol-1-yl)-3′-(trifluoromethyl)-[1,1′-biphenyl]-4-yl)ethoxy)pyrimidin-4-yl)-2,8-diazaspiro[4.5]decane-3-carboxylic acid], less than 50 nM; in that of `Cc1cc(Cl)cc(-c2ccc([C@@H](Oc3cc(N4CCC5(CC4)CN[C@H](C(=O)O)C5)nc(N)n3)C(F)(F)F)c(-n3ccc(C)n3)c2)c1` [Example 1an, (S)-8-(2-amino-6-((R)-1-(3′-chloro-5′-methyl-3-(3-methyl-1H-pyrazol-1-yl)-[1,1′-biphenyl]-4-yl)-2,2,2-trifluoroethoxy)pyrimidin-4-yl)-2,8-diazaspiro[4.5]decane-3-carboxylic acid], less than 50 nM.

Turning to `Cc1ccn(-c2cc(-c3ccc(Cl)c(F)c3)ccc2[C@@H](Oc2cc(N3CCC4(CC3)CN[C@H](C(=O)O)C4)nc(N)n2)C(F)(F)F)n1` [Example 1ao, (S)-8-(2-amino-6-((R)-1-(4′-chloro-3′-fluoro-3-(3-methyl-1H-pyrazol-1-yl)-[1,1′-biphenyl]-4-yl)-2,2,2-trifluoroethoxy)pyrimidin-4-yl)-2,8-diazaspiro[4.5]decane-3-carboxylic acid], the IC50 under setting [1] was less than 50 nM. For `CCOc1cccc(-c2ccc([C@@H](Oc3cc(N4CCC5(CC4)CN[C@H](C(=O)O)C5)nc(N)n3)C(F)(F)F)c(-n3ccc(C)n3)c2)c1` [Example 1ap, (S)-8-(2-amino-6-((R)-1-(3′-ethoxy-3-(3-methyl-1H-pyrazol-1-yl)-[1,1′-biphenyl]-4-yl)-2,2,2-trifluoroethoxy)pyrimidin-4-yl)-2,8-diazaspiro[4.5]decane-3-carboxylic acid], the 50% inhibitory concentration (IC50) under setting [1] is less than 50 nM. Still for that read-out and setting: in the case of `Cc1ccn(-c2cc(-c3ccc(C)c(F)c3)ccc2[C@@H](Oc2cc(N3CCC4(CC3)CN[C@H](C(=O)O)C4)nc(N)n2)C(F)(F)F)n1` [Example 1aq, (S)-8-(2-amino-6-((R)-2,2,2-trifluoro-1-(3′-fluoro-4′-methyl-3-(3-methyl-1H-pyrazol-1-yl)-[1,1′-biphenyl]-4-yl)ethoxy)pyrimidin-4-yl)-2,8-diazaspiro[4.5]decane-3-carboxylic acid] it was 50 to 300 nM.
